System: Bax
Experiment: Bax level assay in A-549 cells
Format: cell-based, human
Conditions: for Bax Conc: control 9; for Bax Fold Change: vs control
Protocol: caspase8, and lysed with Cell Extraction Buffer. This lysate was diluted in Standard Diluent Buffer over the range of the assay and measured for human active caspase-8 content. […]
4.2.7. Bax activation assay
Bring all reagents, except the human Bax-α Standard, to room temperature for at least 30 minutes prior to opening. The human Bax-α Standard solution should not be left at room temperature for more than 10 minutes. All standards, controls and samples should be run in duplicate. Refer to the Assay Layout Sheet to determine the number of wells to be used and put any remaining wells with the desiccant back into the pouch and seal the ziploc. Store unused wells at 4 °C. Pipet 100 μL of Assay Buffer into the S0 (0 pg/mL standard) wells. Pipet 100 μL of Standards #1 through #6 into the appropriate wells. Pipet 100 μL of the Samples into the appropriate wells. Tap the plate gently to mix the contents. Seal the plate and incubate at room temperature on a plate shaker for 1 hour at ~500 rpm. Empty the contents of the wells and wash by adding 400 μL of wash solution to every well. Repeat the wash 4 more times for a total of 5 washes. After the final wash, empty or aspirate the wells and firmly tap the plate on a lint free paper towel to remove any remaining wash buffer.
Pipet 100 μL of yellow Antibody into each well, except the Blank. Seal the plate and incubate at room temperature on a plate shaker for 1 hour at ~500 rpm. Empty the contents of the wells and wash by adding 400 μL of wash solution to every well. Repeat the wash 4 more times for a total of 5 washes. After the final wash, empty or aspirate the wells and firmly tap the plate on a lint free paper towel to remove any remaining wash buffer. Add 100 μL of blue Conjugate to each well, except the Blank. Seal the plate and incubate at room temperature on a plate shaker for 30 minutes […]
Pipet 100 μL of Substrate Solution into each well. Incubate for 30 minutes at room temperature on a plate shaker at ~500 rpm. Pipet 100 μL Stop Sol ution to each well. Blank the plate reader against the Blank wells, read the optical density at 450 nm. Calculate the average net Optical Density (OD) bound for each standard and sample by subtracting the average Blank OD from the average OD for each standard and sample. Using linear graph paper, plot the Average Net OD for each standard versus Bax concentration in each standard. Approximate a straight line through the points.
The concentration of Bax in the unknowns can be determined by interpolation. […]

**Q.** `O=C(NCC(c1ccccc1)c1c(-c2ccccc2)[nH]c2ccccc12)c1cc2cc(Cl)ccc2[nH]1` (stereo not shown) [Compound Va, 5-Chloro-N-(2-phenyl-2-(2-phenyl-1H-indol-3-yl)ethyl)-1H-indole-2-carboxamide] was tested. Which “Bax Conc” value did it give?
**A.** 410 pg/mL

**Q.** And the “Bax Fold Change” value?
**A.** 45

**Q.** With `CO/C=C/c1c(C(=O)NCC(c2ccccc2)c2c(-c3ccccc3)[nH]c3ccccc23)[nH]c2ccc(Cl)cc12` (stereo not shown) [Compound Vg, (E)-5-Chloro-3-(2-methoxyvinyl)-N-(2-phenyl-2-(2-phenyl-1H-indol-3-yl)ethyl)-1H-indole-2-carboxamide] as the compound, how does the “Bax Conc” value read?
**A.** 320 pg/mL

**Q.** What about the “Bax Fold Change” value of the same compound?
**A.** 35
